Laboratory results reported in ChEMBL document CHEMBL1795331, “Synthesis and biological activity of optically active NCL-1, a lysine-specific demethylase 1 selective inhibitor” (Bioorg Med Chem, 2011).

Tests used:
HeLa = assay: cells; settings: Homo sapiens, 48 h
Description: Growth inhibition of human HeLa cells after 48 hrs by MTT assay

in vitro = settings: human, HEK293 cells
Description: Growth inhibition of human HEK293 cells after 48 hrs by MTT assay

SH-SY5Y = assay: cells; settings: Homo sapiens, 48 h
Description: Growth inhibition of human SH-SY5Y cells after 48 hrs by MTT assay

N[C@H]1C[C@@H]1c1cccc(OCC[C@H](NC(=O)c2ccccc2)C(=O)NCc2ccccc2)c1
GI50 (HeLa): 20 µM | GI50 at 48 h (in vitro): 17 µM | GI50 (SH-SY5Y): 9 µM

N[C@@H]1C[C@H]1c1cccc(OCC[C@H](NC(=O)c2ccccc2)C(=O)NCc2ccccc2)c1
GI50 (HeLa): 74 µM | GI50 at 48 h (in vitro): 25 µM | GI50 (SH-SY5Y): 9 µM
